The values that follow come from patent publication US20240148895A1, “ANTIBODY-DRUG CONJUGATE” (Eisai R&D Management Co., Ltd., priority 2022, published 2024).

Assay [1] concerns the target HiBiT tagged BRD4-BD1 protein in HEK293/LgBiT/hPGK/HiBiT-BRD4-BD1 cells (Homo sapiens, UniProt O60885). The assay can be described thus: BET BD1 domain degradation assay. Format: cell-based. On the set-up: HiBit-linker-BRD4 BD1(1-209); host or cells: HEK293 (ATCC CRL-1573) stably transduced with LgBiT and HiBiT-BRD4-BD1. The following applies: concentration for 50% reduction in HiBiT-BRD4-BD1 protein level, 3 hours, read-out: Absolute DC50—3 h (nM) HEK293_HiBiT-BRD4-BD1. From the text:
HEK293/LgBiT/hPGK/HiBiT-BRD4-BD1 cells were established by introducing LgBiT and HiBiT-BRD4-BD1 into the human fetus renal cell line HEK293 (ATCC Number CRL-1573). LgBiT was introduced using lentivirus vector LV[Exp]-Bsd-EFS>{LgBiT}, and HiBiT-BRD4-BD1 was introduced with lentivirus vector LV[Exp]-Puro-hPGK>{HiBit-linker-BRD4 BD1(1-209)}. The vector plasmids LV[Exp]-Bsd-EFS>{LgBiT} and LV[Exp]-Puro-hPGK>{HiBit-linker-BRD4_BD1(1-209)} were constructed by VectorBuilder Co. The lentivirus was produced using a Mission Lentivirus Packaging Mix (Sigma) according to the manufacturer's protocol. Viral infection and drug selection of infected cells were carried out by the following published method (Akagi T. et. al, PNAS 2003; 100:13567-72). The cells were maintenance cultured in a 5% CO2 incubator (37° C.), using culture medium. A 45 μL portion of cell suspension of HEK293/LgBiT/hPGK/HiBiT-BRD4-BD1 cells prepared to 6.7×10^4 cells/mL using culture medium was added to each well of a collagen I-coated 384-well plate (Falcon 356667), and the cells were cultured overnight in a 5% CO2 incubator (37° C.). On the following day, 5 μL of test substance diluted with RPMI-1640 (FujiFilm-Wako Pure Chemical Industries) containing 10% fetal bovine serum (FBS: SIGMA 173012) and penicillin/streptomycin (FujiFilm-Wako Pure Chemical Industries) was added to each well, and culturing was continued for 3 hours in a 5% CO2 incubator (37° C.). The luminous intensity was measured using a Nono-Glo HiBiT Lytic Detection System (Promega), and the intracellular HiBiT tagged BRD4-BD1 protein level was calculated. After culturing, 25 μL of measuring reagent was added to each well and the plate contents were mixed for 5 minutes using a plate mixer. The plate was stationed for 10 minutes at room temperature while shielded from light, and then the luminous intensity was measured with an ENVISION′ (Perkin-Elmer). The luminescence value of the wells with addition of test substance was determined as a relative value, with 100% as the luminescence value of the wells with cells but without addition of the test substance, and 0% as the luminescence value of the wells without cells. A plot of test substance concentration against luminescence value % approximated a 4-parameter logistic curve, and the test substance concentration necessary for 50% reduction in protein level (Absolute DC50) was calculated and is shown in Table 4.
(In general: With HiBiT, luminescence reflects the tagged protein that the partner subunit can reach.)

Another assay relates to AsPC-1/Cas9 cell line. The assay can be described thus: AsPC-1/Cas9 growth inhibition assay. The class given is cell-based, human. The following applies: Homo sapiens, ASPC1, 120 h, AsPC-1/Cas9 cells, 5 days culture, CellTiter Glo 2.0; read-out: Absolute IC50—Day 5 (nM) AsPC-1 Cas9. The protocol:
The human pancreatic cancer cell line AsPC-1 (ATCC Number CRL1682) was infected with Edit-R Lentiviral hCMV-Blast-Cas9 Nuclease Particle (Dharmacon, VCAS10124) in the presence of 8 μg/ml of Hexadimethrine bromide (Sigma, H9268), and after 24 hours it was exposed to 10 μg/ml of Blastcidin S (Thermo, A11139) to remove the uninfected cells, thereby establishing an AsPC-1/Cas9 cell line. The cells were maintenance cultured in a 5% CO2 incubator (37° C.) using RPMI-1640 (FujiFilm-Wako Pure Chemical Industries) containing 10% fetal bovine serum (FBS: SIGMA 173012) and penicillin/streptomycin (FujiFilm-Wako Pure Chemical Industries) (hereunder referred to simply as “culture medium”). After adding 45 μL of AsPC-1/Cas9 cell suspension prepared to 2.0×10^4 cells/mL using culture medium into each well of a 384-well plate (Greiner 781091), the cells were cultured overnight in a 5% CO2 incubator (37° C.). On the following day, 5 μL of the test substance diluted with culture medium was added to each well, and culturing was continued for 5 days in a 5% CO2 incubator (37° C.). Next, 25 μL of CellTiter Glo™ 2.0 (Promega) was added to each well, and the plate contents were mixed for 5 minutes using a plate mixer. The plate was stationed for 10 minutes at room temperature while shielded from light, and then the luminous intensity was measured with an ENVISION™ (Perkin-Elmer). The luminescence value of the wells with addition of test substance was determined as a relative value, with 100% as the luminescence value of the wells with cells but without addition of the test substance, and 0% as the luminescence value of the wells without cells. A plot of test substance concentration against luminescence value % approximated a 4-parameter logistic curve, and the test substance concentration necessary for 50% inhibition of cell growth (Absolute IC50) was calculated, and is shown in Table 4.

In the case of `COc1ccc(C(=O)N2C[C@H](C)N(CC3CCN(c4nc([C@@](CN)(OC5CC5)c5ccccc5)c5cc(-c6cn(C)c(=O)c7[nH]ccc67)ccc5n4)CC3)C[C@H]2C)cc1N1CCC(=O)NC1=O` [Example 115, 1-(5-((2R,5 S)-4-((1-(4-((R)-2-Amino-1-cyclopropoxy-1-phenylethyl)-6-(6-methyl-7-oxo-6,7-dihydro-1H-pyrrolo[2,3-c]pyridin-4-yl)quinazolin-2-yl)piperidin-4-yl)methyl)-2,5-dimethylpiperazine-1-carbonyl)-2-methoxyphenyl)dihydropyrimidine-2,4-(1H,3H)-dione], the DC50 – broadly, the concentration giving 50% degradation – in assay [1] was 0.15 nM. For the same compound, the half-inhibitory concentration (IC50) (as a rule, the point on the concentration scale where inhibition reaches its midpoint) in the assay with AsPC-1/Cas9 cell line was 0.11 nM.
The matching figures for `CNCCN(C)C(=O)OCC(OC1CC1)(c1ccccc1)c1nc(N2CCC(CN3C[C@@H](C)N(C(=O)c4ccc(OC)c(N5CCC(=O)NC5=O)c4)C[C@@H]3C)CC2)nc2ccc(-c3cn(C)c(=O)c4[nH]ccc34)cc12` (stereo partly drawn) [Example 119, 2-Cyclopropoxy-2-(2-(4-(((2S,5R)-4-(3-(2,4-dioxotetrahydropyrimidine-1(2H)-yl)-4-methoxybenzoyl)-2,5-dimethylpiperazin-1-yl)methyl)piperidin-1-yl)-6-(6-methyl-7-oxo-6,7-dihydro-1H-pyrrolo[2,3-c]pyridin-4-yl)quinazolin-4-yl)-2-phenylethyl methyl(2-(methylamino)ethyl)carbamate]: 1.6 nM and 0.23 nM.
As to `CNCCN(C)C(=O)OCC(OC1CC1)(c1ccccc1)c1nc(N2CCC(C#Cc3ccc(OC)c(N4CCC(=O)NC4=O)c3)CC2)nc2ccc(-c3cn(C)c(=O)c4[nH]ccc34)cc12` (centres unmarked) [Example 120, 2-Cyclopropoxy-2-(2-(4-((3-(2,4-dioxotetrahydropyrimidine-1(2H)-yl)-methoxyphenyl)ethynyl)piperidin-1-yl)-6-(6-methyl-7-oxo-6,7-dihydro-1H-pyrrolo[2,3-c]pyridin-4-yl)quinazolin-4-yl)-2-phenylethyl methyl(2-(methylamino)ethyl)carbamate], the half-maximal degradation concentration (DC50) in assay [1] was 2.9 nM. Besides, the IC50 with AsPC-1/Cas9 cell line amounted to 0.58 nM.
The matching figures for `Cc1cc(-c2ccc3nc(N4CCC(CN5CCN(C(=O)COc6cccc7c6C(=O)N(C6CCC(=O)NC6=O)C7=O)CC5)CC4)nc(C(CO)(OC4CC4)c4ccccc4)c3c2)cn(C)c1=O` (centres unmarked) [Example 122, 4-(2-(4-((1-(4-(1-Cyclopropoxy-2-hydroxy-1-phenylethyl)-6-(1,5-dimethyl-6-oxo-1,6-dihydropyridin-3-yl)quinazolin-2-yl)piperidin-4-yl)methyl)piperazin-1-yl)-2-oxoethoxy)-2-(2,6-dioxopiperidin-3-yl)isoindoline-1,3-dione]: 0.15 nM and 4.9 nM.
The matching figures for `COc1ccc(C(=O)NC2(C)CCN(C3CCN(c4nc(C(CO)(CC(C)C)c5cccs5)c5cc(-c6cn(C)c(=O)c7[nH]ccc67)ccc5n4)CC3)CC2)cc1N1CCC(=O)NC1=O` (centres unmarked) [Example 125, 3-(2,4-Dioxotetrahydropyrimidine-1(2H)-yl)-N-(1′-(4-(1-hydroxy-4-methyl-2-(thiophen-2-yl)pentan-2-yl)-6-(6-methyl-7-oxo-6,7-dihydro-1H-pyrrolo[2,3-c]pyridin-4-yl)quinazolin-2-yl)-4-methyl-[1,4′-bipiperidin]-4-yl)-4-methoxybenzamide]: 0.19 nM and 0.2 nM.
The matching figures for `CCCC(CO)(CCC)c1nc(N2CCC(OC3CCN(C(=O)c4ccc(OC)c(N5CCC(=O)NC5=O)c4)CC3)CC2)nc2ccc(-c3cn(C)c(=O)cc3OC)cc12` [Example 126, 1-(5-(4-((1-(4-(4-(Hydroxymethyl)heptan-4-yl)-6-(4-methoxy-1-methyl-6-oxo-1,6-dihydropyridin-3-yl)quinazolin-2-yl)piperidin-4-yl)oxy)piperidine-1-carbonyl)-2-methoxyphenyl)dihydropyrimidine-2,4(1H,3H)-dione]: 0.05 nM and 0.084 nM.
As to `Cc1ccc(C(=O)N2C[C@H](C)N(C3CCN(c4nc(C(CO)(OC5CC5)c5cccc(O)c5)c5cc(-c6cn(C)c(=O)c7[nH]ccc67)ccc5n4)CC3)C[C@H]2C)cc1N1CCC(=O)NC1=O` (stereo partly drawn) [Example 127, 1-(5-((2R,5S)-4-(1-(4-(1-Cyclopropoxy-2-hydroxy-1-(3-hydroxyphenyl)ethyl)-6-(6-methyl-7-oxo-6,7-dihydro-1H-pyrrolo[2,3-c]pyridin-4-yl)quinazolin-2-yl)piperidin-4-yl)-2,5-dimethylpiperazine-1-carbonyl)-2-methylphenyl)dihydropyrimidine-2,4-(1H,3H)-dione], in assay [1], the DC50 worked out at 0.6 nM. In addition, the IC50 with AsPC-1/Cas9 cell line was 0.17 nM.
The matching figures for `COc1ccc(C(=O)NC2(C)CCN(C3CCN(c4nc(C(CO)(OC5CC5)c5cccc6ccccc56)c5cc(-c6cn(C)c(=O)c7[nH]ccc67)ccc5n4)CC3)CC2)cc1N1CCC(=O)NC1=O` (centres unmarked) [Example 128, N-(1′-(4-(1-Cyclopropoxy-2-hydroxy-1-(naphthalen-1-yl)ethyl)-6-(6-methyl-7-oxo-6,7-dihydro-1H-pyrrolo[2,3-c]pyridin-4-yl)quinazolin-2-yl)-4-methyl-[1,4′-bipiperidin]-4-yl)-3-(2,4-dioxotetrahydropyrimidine-1(2H)-yl)-4-methoxybenzamide]: 0.25 nM and 0.32 nM.
The matching figures for `COc1ccc(-n2cc(CN3CCN(CC4CCN(c5nc(C(CO)(OC6CC6)c6ccccc6)c6cc(-c7cc(C)c(=O)n(C)c7)ccc6n5)CC4)CC3)nn2)cc1N1CCC(=O)NC1=O` (centres unmarked) [Example 130, 1-(5-(4-((4-((1-(4-(1-Cyclopropoxy-2-hydroxy-1-phenylethyl)-6-(1,5-dimethyl-6-oxo-1,6-dihydropyridin-3-yl)quinazolin-2-yl)piperidin-4-yl)methyl)piperazin-1-yl)methyl)-1H-1,2,3-triazol-1-yl)-2-methoxyphenyl)-dihydropyrimidine-2,4(1H,3H)-dione]: 0.19 nM and 0.98 nM.
The matching figures for `COc1ccc(C#CCNC2(C)CCN(C3CCN(c4nc([C@@](COCNC(=O)[C@H](CC(N)=O)NC(C)=O)(OC5CC5)c5ccccc5)c5cc(-c6cn(C)c(=O)c7[nH]ccc67)ccc5n4)CC3)CC2)cc1N1CCC(=O)NC1=O` [Example 131]: 11 nM and 4.5 nM.
